According to the supplement of paper PMC11208160:

Assay: recombinant barcode read abundance after kanamycin selection (control-corrected) (log10(CPM+1)); higher = more efficient recombination; sequences stand for … in AGTGCAGAGAAAATCGGCCAGTTTTCTCTGCCTGCAGTCCGCATGCCGT…AGATTTATGCAGCGGACTGCCTTTCTCCCAAAGTGATAAACCGGACAGTATCATGGACCGGTTTTCCCGGTAATCCGTATTTGCAAGGTTGGTTTCACT; site = the 11-nt target
Method in brief: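 Pooled oligos, each joining a target to an IS621 bridge RNA target-binding loop, were cloned and co-electroporated with a donor plasmid into E. coli. Selective plates carried chloramphenicol/ampicillin/kanamycin and 0.1 mM IPTG, while chloramphenicol/ampicillin LB agar served as control, with two replicates of each. Recombination efficiency rests on averaged, control-corrected counts per million of barcodes at recombinant junctions, shown as log10(CPM+1).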
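Also: IS621 recombinase and bridge RNA in Escherichia coli cells.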

Row | Sequence | recombinant barcode read abundance (log10)
1 | GCAATGACTTGGGTTCTAACCTGTTGCCT (site GGAATGACTAG) | 0.105
2 | GCAATGACTTGGGTTCTAACCTGTTGCCT (site GTAATGACTAG) | 0.292
3 | GCAATGTCTTGGGTTCTAACCTGTTGCCT (site GAAATGTCTAG) | 0.104
4 | GCAATGTCTTGGGTTCTAACCTGTTGCCT (site GCAATGTCTAG) | 1.42
5 | GCAATGTCTTGGGTTCTAACCTGTTGCCT (site GGAATGTCTAG) | 0.239
6 | GCAATGTCTTGGGTTCTAACCTGTTGCCT (site GTAATGTCTAG) | 0.443
7 | GCACACCCTTGGGTTCTAACCTGTTGCCT (site CCACATCCTAG) | 0.0345
8 | GCACACCCTTGGGTTCTAACCTGTTGCCT (site GCACACCCTAG) | 1.1
9 | GCACATCCTTGGGTTCTAACCTGTTGCGT (site GCAAATCCTAG) | 0.154
10 | GCACATCCTTGGGTTCTAACCTGTTGCGT (site GCACATCCTAC) | 2.53
11 | GCACCTGCTTGGGTTCTAACCTGTTGCCT (site GCACCTGCTAG) | 1.61
12 | GCACCTGCTTGGGTTCTAACCTGTTGCCT (site TATTTGCCTCA) | 0.238
13 | GCACGCTCTTGGGTTCTAACCTGTTGCCT (site GCACACTCTAG) | 0.607
14 | GCACGCTCTTGGGTTCTAACCTGTTGCCT (site GCACCCTCTAG) | 0.192
15 | GCACGCTCTTGGGTTCTAACCTGTTGCCT (site GCACGCTCTAG) | 1.55
16 | GCACGCTCTTGGGTTCTAACCTGTTGCCT (site GCACTCTCTAG) | 0.12
17 | GCACTCTCTTGGGTTCTAACCTGTTGCCT (site GCACACTCTAG) | 0.0251
18 | GCACTCTCTTGGGTTCTAACCTGTTGCCT (site GCACCCTCTAG) | 0.568
19 | GCACTCTCTTGGGTTCTAACCTGTTGCCT (site GCACGCTCTAG) | 0.101
20 | GCACTCTCTTGGGTTCTAACCTGTTGCCT (site GCACTCTCTAG) | 1.58
21 | GCATCCACTTGGGTTCTAACCTGTTGCCT (site GCATCCACTAG) | 0.938
22 | GCATCCACTTGGGTTCTAACCTGTTGCCT (site GCGTCCACTAG) | 0.0333

Row | Sequence | recombinant barcode read abundance (log10)
23 | GCATCTACTTGGGTTCTAACCTGTTGCCT (site GAATCTACTAG) | 0.101
24 | GCATCTACTTGGGTTCTAACCTGTTGCCT (site GCATCTACTAG) | 0.136
25 | GCATCTACTTGGGTTCTAACCTGTTGCCT (site GGATCTACTAG) | 0.059
26 | GCATCTACTTGGGTTCTAACCTGTTGCCT (site GTATCTACTAG) | 0.2
27 | GCATCTCCTTGGGTTCTAACCTGTTGCCT (site ACATCTCCTAG) | 0.4
28 | GCATCTCCTTGGGTTCTAACCTGTTGCCT (site CCATCTCCTAG) | 0.103
29 | GCATCTCCTTGGGTTCTAACCTGTTGCCT (site GCATCTCCTAG) | 1.06
30 | GCATCTCCTTGGGTTCTAACCTGTTGCCT (site TCATCTCCTAG) | 0.0491
31 | GCATGAGCTTGGGTTCTAACCTGTTGCCT (site GCATGAGCTAG) | 2.09
32 | GCATGAGCTTGGGTTCTAACCTGTTGCCT (site GCCTGAGCTAG) | 0.122
33 | GCATGAGCTTGGGTTCTAACCTGTTGCCT (site GCGTGAGCTAG) | 0.136
34 | GCATGAGCTTGGGTTCTAACCTGTTGCCT (site GCTTGAGCTAG) | 0.914
35 | GCCAACCCTTGGGTTCTAACCTGTTGCAT (site GCCAACCCTAA) | 0.0781
36 | GCCAACCCTTGGGTTCTAACCTGTTGCAT (site GCCAACCCTAC) | 0.0603
37 | GCCAACCCTTGGGTTCTAACCTGTTGCAT (site GCCAACCCTAG) | 0.348
38 | GCCAACCCTTGGGTTCTAACCTGTTGCAT (site GCCAACCCTAT) | 0
39 | GCCAACCCTTGGGTTCTAACCTGTTGCTA (site GCCAACCCTTA) | 0.116
40 | GCCAACCCTTGGGTTCTAACCTGTTGCTA (site TCCAACCCTTG) | 0.129
41 | GCCACACCTTGGGTTCTAACCTGTTGCCT (site GCCAAACCTAG) | 0.188
42 | GCCACACCTTGGGTTCTAACCTGTTGCCT (site GCCACACCTAG) | 0.222
43 | GCCACACCTTGGGTTCTAACCTGTTGCCT (site GCCAGACCTAG) | 0.177
44 | GCCACACCTTGGGTTCTAACCTGTTGCCT (site GCCATACCTAG) | 0.153

Row | Sequence | recombinant barcode read abundance (log10)
45 | GCCAGGGCTTGGGTTCTAACCTGTTGCCG (site GCCAGGGCTCG) | 0.461
46 | GCCAGGGCTTGGGTTCTAACCTGTTGCCG (site GCCCGGGCTCG) | 0.264
47 | GCCAGGGCTTGGGTTCTAACCTGTTGCCG (site GCCGGGGCTCG) | 0.111
48 | GCCAGGGCTTGGGTTCTAACCTGTTGCCG (site GCCTGGGCTCG) | 0.0195
49 | GCCATACCTTGGGTTCTAACCTGTTGCCT (site GCCAAACCTAG) | 0.0715
50 | GCCATACCTTGGGTTCTAACCTGTTGCCT (site GCCACACCTAG) | 0.0723
51 | GCCATACCTTGGGTTCTAACCTGTTGCCT (site GCCAGACCTAG) | 0.194
52 | GCCATACCTTGGGTTCTAACCTGTTGCCT (site GCCATACCTAG) | 0.199
53 | GCCATGACTTGGGTTCTAACCTGTTGCCT (site GCCATAACTAG) | 0.067
54 | GCCATGACTTGGGTTCTAACCTGTTGCCT (site GCCATCACTAG) | 0.0872
55 | GCCATGACTTGGGTTCTAACCTGTTGCCT (site GCCATGACTAG) | 0.132
56 | GCCATGACTTGGGTTCTAACCTGTTGCCT (site GCCATTACTAG) | 0
57 | GCCCAATCTTGGGTTCTAACCTGTTGCCT (site GCCCAATCTAG) | 1.05
58 | GCCCAATCTTGGGTTCTAACCTGTTGCCT (site GCCCCATCTAG) | 0.115
59 | GCCCAATCTTGGGTTCTAACCTGTTGCCT (site GCCCGATCTAG) | 0.176
60 | GCCCAATCTTGGGTTCTAACCTGTTGCCT (site GCCCTATCTAG) | 0.195
61 | GCCCAGCCTTGGGTTCTAACCTGTTGCGG (site ACCAAGCCTCC) | 0.0607
62 | GCCCAGCCTTGGGTTCTAACCTGTTGCGG (site GCCCAGCCTCC) | 2.71
63 | GCCCTCCCTTGGGTTCTAACCTGTTGCCT (site GCACTCCCTAG) | 0.558
64 | GCCCTCCCTTGGGTTCTAACCTGTTGCCT (site GCCCTCCCTAG) | 1.77
65 | GCCCTCCCTTGGGTTCTAACCTGTTGCCT (site GCGCTCCCTAG) | 0.0524
66 | GCCCTCCCTTGGGTTCTAACCTGTTGCCT (site GCTCTCCCTAG) | 0.597

Row | Sequence | recombinant barcode read abundance (log10)
67 | GCCGGCTCTTGGGTTCTAACCTGTTGCCT (site GACGGCTCTAG) | 0.182
68 | GCCGGCTCTTGGGTTCTAACCTGTTGCCT (site GCCGGCTCTAG) | 1.35
69 | GCCTAGTCTTGGGTTCTAACCTGTTGCCA (site GCCTAGTCTTG) | 1.13
70 | GCCTAGTCTTGGGTTCTAACCTGTTGCCA (site TCCTAGTCTTG) | 0.0302
71 | GCCTCGGCTTGGGTTCTAACCTGTTGCCT (site GCATCGGCTAG) | 0.0156
72 | GCCTCGGCTTGGGTTCTAACCTGTTGCCT (site GCCTCGGCTAG) | 0.134
73 | GCCTCGGCTTGGGTTCTAACCTGTTGCCT (site GCGTCGGCTAG) | 0.0495
74 | GCCTCGGCTTGGGTTCTAACCTGTTGCCT (site GCTTCGGCTAG) | 0.0313
75 | GCCTCGTCTTGGGTTCTAACCTGTTGCCT (site GCATCGTCTAG) | 0.0638
76 | GCCTCGTCTTGGGTTCTAACCTGTTGCCT (site GCCTCGTCTAG) | 0.68
77 | GCCTCGTCTTGGGTTCTAACCTGTTGCCT (site GCGTCGTCTAG) | 0.206
78 | GCCTCGTCTTGGGTTCTAACCTGTTGCCT (site GCTTCGTCTAG) | 0.0462
79 | GCCTGAGCTTGGGTTCTAACCTGTTGCCT (site GCATGAGCTAG) | 0
80 | GCCTGAGCTTGGGTTCTAACCTGTTGCCT (site GCCTGAGCTAG) | 0.303
81 | GCCTGAGCTTGGGTTCTAACCTGTTGCCT (site GCGTGAGCTAG) | 0.272
82 | GCCTGAGCTTGGGTTCTAACCTGTTGCCT (site GCTTGAGCTAG) | 0
83 | GCCTGGGCTTGGGTTCTAACCTGTTGCCG (site GCCAGGGCTCG) | 0.0298
84 | GCCTGGGCTTGGGTTCTAACCTGTTGCCG (site GCCCGGGCTCG) | 0.516
85 | GCCTGGGCTTGGGTTCTAACCTGTTGCCG (site GCCGGGGCTCG) | 0.114
86 | GCCTGGGCTTGGGTTCTAACCTGTTGCCG (site GCCTGGGCTCG) | 0.72
